Data as given in ChEMBL document CHEMBL1144059, “Interference of linoleic acid fraction in some receptor binding assays” (J Nat Prod, 1999).

Columns and labels:
[1] = molecular target: T1, Adenosine receptor A1 (Rattus norvegicus) (UniProt P25099); assay: Displacement of [3H]DPCPX from rat brain adenosine A1 receptor at 56 uM assessed per mg of protein by saturation analysis
T1 sequence (whole entry): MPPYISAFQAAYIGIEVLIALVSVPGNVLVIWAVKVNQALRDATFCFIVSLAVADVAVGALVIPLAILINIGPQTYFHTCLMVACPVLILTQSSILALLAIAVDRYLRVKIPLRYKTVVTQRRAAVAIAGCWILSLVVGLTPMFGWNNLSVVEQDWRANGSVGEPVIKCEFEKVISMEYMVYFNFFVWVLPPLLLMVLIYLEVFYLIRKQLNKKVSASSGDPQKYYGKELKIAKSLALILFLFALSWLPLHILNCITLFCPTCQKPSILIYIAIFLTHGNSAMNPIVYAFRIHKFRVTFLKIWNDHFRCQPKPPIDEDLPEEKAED

[2] = molecular target: T1, Adenosine receptor A1 (Rattus norvegicus); assay: Displacement of [3H]DPCPX from rat adenosine A1 receptor at 1 mM by liquid scintillation counting
Adenosine receptor A1 = molecular target: T2, Adenosine receptor A1 (Rattus norvegicus, UniProt P25099); assay: Displacement of [3H]DPCPX from rat adenosine A1 receptor by liquid scintillation counting
T2 sequence (P25099 whole entry): T1 sequence (whole entry)

Bos taurus [3] = species: Bos taurus; assay: Displacement of [3H]nitrobenzylthiosine from nucleoside transport protein in calf lung membrane at 0.1 mM; type: cell membranes
Rattus norvegicus [4] = species: Rattus norvegicus; assay: Displacement of [3H]naloxone from rat opioid receptor at 10 uM
Rattus norvegicus [5] = species: Rattus norvegicus; assay: Displacement of [3H]naloxone from rat opioid receptor at 0.1 mM
[6] = molecular target: T1, Adenosine receptor A1 (Rattus norvegicus); assay: Displacement of [3H]DPCPX from rat adenosine A1 receptor at 10 uM by liquid scintillation counting
Rattus norvegicus [7] = species: Rattus norvegicus; assay: Displacement of [3H]naloxone from rat opioid receptor at 1 mM
Bos taurus [8] = species: Bos taurus; assay: Displacement of [3H]nitrobenzylthiosine from nucleoside transport protein in calf lung membrane at 10 uM; type: cell membranes
Bos taurus [9] = species: Bos taurus; assay: Displacement of [3H]nitrobenzylthiosine from nucleoside transport protein in calf lung membrane at 1 mM; type: cell membranes
[10] = molecular target: T1, Adenosine receptor A1 (Rattus norvegicus); assay: Displacement of [3H]DPCPX from rat adenosine A1 receptor at 0.1 mM by liquid scintillation counting

- Activity [1]: 143 fmol
- Activity [2]: 0%
- IC50 (Adenosine receptor A1): 65 µM
- Activity (Bos taurus [3]): 100%
- Activity (Rattus norvegicus [4]): 100%
- Activity (Rattus norvegicus [5]): 42%
- Activity [6]: 85%
- Activity (Rattus norvegicus [7]): > 100%
- Activity (Bos taurus [8]): 100%
- Activity (Bos taurus [9]): < 0%
- Activity [10]: 3%
SMILES: CCCCC/C=C\C/C=C\CCCCCCCC(=O)O [LINOLEIC ACID]
